Where two headings read alike, the source gives them in different places.
Key:
mouse calvaria = conditions: in vitro organ culture; cited from earlier work
[1] = test system: fetal rat calvaria (osteoblast) cells; conditions: in vitro; cited from earlier work
closed femur fracture [2] = assay: Torsional mechanical testing of fractured rat femurs (Example 4); assay type: in vivo, Sprague-Dawley rats; conditions: 5 weeks of healing; for greater peak torque than vehicle treated rats: Inhibitor A 30 mg/kg, Inhibitor B 5 mg/kg, 2 doses daily until day 21; for mode of femur failure in torsional testing (boney union vs non-union): all femurs, vehicle 13% (2 of 15) non-unions
Protocol: (§1) Sprague-Dawley rats (3 months old) underwent a standard closed femur fracture procedure as described in the art (Simon et al. Journal of Bone and Mineral Research, 17(6): 963-976 (2002); Bonnarens and Einhorn, Production of a standard closed fracture in laboratory animal bone. Journal of Orthopaedic Research, 2: 97-101 (1984)). The impending fracture was stabilized with an intramedullary stainless steel pin. Beginning 4 hours after fracture the rats were treated with vehicle (1% methylcellulose) or inhibitors of 5-LO suspended in 1% methylcellulose Inhibitor A (NDGA) was administered at 30 mg/kg and Inhibitor B (AA-861) was administered at 5 mg/kg. The day after surgery and continuing until day 21 post-fracture, experimental rats were treated with 2 doses of inhibitor (either A or B), the first dose between […] and then again with another dose 8-10 hours later. Control rats were treated similarly but with carrier only (1% methylcellulose). Three weeks after fracture the rats were anesthetized and high resolution radiographs were made of the fractured femurs using a Packard Faxitron and Kodak MinR2000 mammography film (FIGS. 8A, 8B, and 8C). Five weeks after fracture the rats were sacrificed, femurs resected, and assayed for structural mechanical properties by torsional mechanical testing (FIG. 8D).
Torsional mechanical testing was used to measure the peak torque sustained by each femur after 5 weeks of healing.

closed femur fracture [3] = assay: Rat closed femur fracture healing, radiographs (Example 4); assay type: in vivo, Sprague-Dawley rats; conditions: treated rats vs untreated rats
Protocol: as §1

Saos-2 cells = conditions: cited from earlier work
[4] = test system: primary rat calvaria (osteoblast) cultures; conditions: in vitro; cited from earlier work
G292 cells = conditions: cited from earlier work
[5] = higher concentration (0.3-1 micromolar)

Molecule | BMP2 induced increase in mouse calvaria thickness (mouse calvaria) | alkaline phosphatase activity [1] | bone nodule formation [1] | greater peak torque than vehicle treated rats (closed femur fracture [2]) | mode of femur failure in torsional testing (boney union vs non-union) (closed femur fracture [2]) | osteogenesis / fracture healing (FIG. 8, x-rays) (closed femur fracture [3]) | proliferation of Saos-2 cells (Saos-2 cells; concentration not given) | proliferation of primary rat osteoblast cultures [4] | further results
5-hydroxyeicosatetraenoic acid [Inhibitor 5-HETE] | prevented | reduce | reduce |  |  |  |  |  | 
CC(Cc1ccc(O)c(O)c1)C(C)Cc1ccc(O)c(O)c1 (stereo not drawn) [Inhibitor A, nordihydroguaiaretic acid] |  |  |  | 22% | failed as boney unions | accelerated |  |  | 
CC1=C(C)C(=O)C(CCCCC#CCCCC#CCO)=C(C)C1=O [Inhibitor B, 2-(12-hydroxydodeca-5,10-diynyl)-3,5,6-trimethyl-1,4-benzoquinone] |  |  |  | 53% | failed as boney unions | accelerated | no effect |  | 
CCCCC/C=C\C[C@@H](O)/C=C/C=C/C=C\[C@@H](O)CCCC(=O)O [LTB4] | prevented | reduce | reduce |  |  |  |  | reduces proliferation | proliferation of G292 cells (G292 cells; [5]): promote proliferation; proliferation of Saos-2 cells (Saos-2 cells; [5]): promote proliferation
CCCCC/C=C\C\C=C/C=C/C=C/[C@@H](SC[C@H](NC(=O)CC[C@H](N)C(=O)O)C(=O)NCC(=O)O)[C@@H](O)CCCC(=O)O [LTC4] |  |  |  |  |  |  | no effect | no effect | proliferation of G292 cells (G292 cells; concentration not given): promote proliferation
CCCCC/C=C\C\C=C/C=C/C=C/[C@@H](SC[C@H](N)C(=O)NCC(=O)O)[C@@H](O)CCCC(=O)O [LTD4] |  | no effect | no effect |  |  |  |  |  | 

From patent publication US8980851B2, “Methods for bone treatment by modulating an arachidonic acid metabolic or signaling pathway” (Accelalox, Inc., priority 2005, dated 2015)
